According to patent US11925629B2, “Heterocyclic inhibitors of ERK1 and ERK2 and their use in the treatment of cancer” (Asana Biosciences, LLC, priority 2015, dated 2024):
Read-outs that look alike come from different tables or passages of the source.

Tests used:
Assay type in all cases: cell-based, human
[1] = system: HT-29 (colorectal carcinoma, B-RafV600E) cells; assay: Cell proliferation (Alamar Blue) assay, HT-29
Method in brief: (§1)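 Cells seeded at 5000/well and allowed 16-24 h at 37° C./5% CO2, then exposed to compound (typically 0.0005-10 uM, 3-fold serial dilutions) for 72 h. Viability was read by Alamar Blue fluorescence (ex 540/em 590 nm) after 1-3 h. IC50 came from a variable-slope sigmoidal dose-response fit.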

[2] = system: HCT116 (colorectal carcinoma, K Ras G13D) cells; assay: Cell proliferation (Alamar Blue) assay, HCT116
Method in brief: as §1

[3] = system: phosphorylation of RSK1(S380) (the downstream target of ERK1/2); assay: Phospho-RSK1(S380) ELISA assay in HT-29 cells; details: phospho-RSK1(S380), read-out: Mechanistic Cell Assay RSK1 Phos HT29 IC50
Method in brief: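 HT-29 colorectal carcinoma cells (B-RafV600E), plated overnight at 37° C./5% CO2, were treated with compound dilutions for 2 h. Lysates were analysed by phospho-RSK1(Ser380) sandwich ELISA with absorbance at 450 nm. IC50 came from a sigmoidal variable-slope dose-response fit.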

[4] = Homo sapiens, HT-29, HT29 cells
[5] = Homo sapiens, HCT-116, HCT116 cells

CCNc1ncc(C)c(-n2ccc(C(=O)NC(CO)c3ccccc3)c2)n1 (stereo not drawn) [Example 130, 1-(2-(ethyl-amino)-5-methyl-pyrimidin-4-yl)-N-(2-hydroxy-1-phenylethyl)-1H-pyrrole-3-carboxamide] showed an IC50 [1, 4] greater than 2500 nM, an IC50 [2, 5] greater than 2500 nM and an IC50 [3, 4] of 500 to 2500 nM.

In the case of Cc1cnc(Nc2ccc3c(c2)OCCO3)nc1-n1ccc(C(=O)NC(CO)c2ccccc2)c1 (stereo not drawn) [Example 131, 1-(2-((2,3-dihydro-benzo[b][1,4]dioxin-6-yl)-amino)-5-methyl-pyrimidin-4-yl)-N-(2-hydroxy-1-phenylethyl)-1H-pyrrole-3-carboxamide], the IC50 [1, 4] is reported as 250 to 500 nM, the IC50 [2, 5] is reported as 250 to 500 nM and the IC50 [3, 4] is reported as 250 to 500 nM.

Work on Cc1cnc(Nc2ccc3occc3c2)nc1-n1cnc(C(=O)NC(CO)c2cccc(Cl)c2)c1 (stereo not drawn) [Example 132, 1-(2-(benzo-furan-5-ylamino)-5-methyl-pyrimidin-4-yl)-N-(1-(3-chlorophenyl)-2-hydroxy-ethyl)-1H-imidazole-4-carboxamide] yielded an IC50 [1, 4] of 500 to 2500 nM, an IC50 [2, 5] of 500 to 2500 nM and an IC50 [3, 4] of 500 to 2500 nM.

For CC[C@@H](CO)Nc1ncc(C)c(-n2ccc(C(=O)N[C@H](CO)c3ccc(F)c(Cl)c3)c2)n1 [Example 133, N-((S)-1-(3-chloro-4-fluorophenyl)-2-hydroxy-ethyl)-1-(2-(((S)-1-hydroxy-butan-2-yl)amino)-5-methyl-pyrimidin-4-yl)-1H-pyrrole-3-carboxamide], the IC50 [1, 4] was 250 to 500 nM, the IC50 [2, 5] was 500 to 2500 nM and the IC50 [3, 4] was 250 to 500 nM.

Compound Cc1cnc(Nc2ccc3c(c2)CCO3)nc1-n1ccc(C(=O)NC(CO)c2cccc(Cl)c2)c1 (stereo not drawn) [Example 137, N-(1-(3-chloro-phenyl)-2-hydroxy-ethyl)-1-(2-((2,3-dihydro-benzofuran-5-yl)-mino)-5-methyl-pyrimidin-4-yl)-1H-pyrrole-3-carboxamide] has an IC50 [1, 4] of 250 to 500 nM, an IC50 [2, 5] of 100 to 250 nM and an IC50 [3, 4] of 100 to 250 nM.

Cc1cnc(Nc2ccc3c(c2)CCO3)nc1-n1ccc(C(=O)NC(CO)c2ccccc2)c1 (stereo not drawn) [Example 138, 1-(2-((2,3-dihydro-benzofuran-5-yl)amino)-5-methyl-pyrimidin-4-yl)-N-(2-hydroxy-1-phenylethyl)-1H-pyrrole-3-carboxamide] was tested, and the IC50 [1, 4] was 100 to 250 nM, the IC50 [2, 5] was 100 to 250 nM and the IC50 [3, 4] was 100 to 250 nM.

Cc1cnc(Nc2ccc3c(c2)OCCO3)nc1-n1ccc(C(=O)NC(CO)c2cccc(Cl)c2)c1 (stereo not drawn) [Example 139, N-(1-(3-chloro-phenyl)-2-hydroxy-ethyl)-1-(2-((2,3-dihydro-benzo[b][1,4]dioxin-6-yl)amino)-5-methyl-pyrimidin-4-yl)-1H-pyrrole-3-carboxamide] gave an IC50 [1, 4] of 250 to 500 nM, an IC50 [2, 5] of 100 to 250 nM and an IC50 [3, 4] of no more than 100 nM.

Work on Cc1cnc(Nc2ccc3[nH]ncc3c2)nc1-n1ccc(C(=O)NC(CO)c2ccccc2)c1 (stereo not drawn) [Example 140, 1-(2-((1H-indazol-5-yl)amino)-5-methyl-pyrimidin-4-yl)-N-(2-hydroxy-1-phenylethyl)-1H-pyrrole-3-carboxamide] yielded an IC50 [1, 4] of 500 to 2500 nM, an IC50 [2, 5] of 500 to 2500 nM and an IC50 [3, 4] greater than 2500 nM.

In the case of Cc1cnc(NC2CCCOC2)nc1-n1ccc(C(=O)NC(CO)c2ccccc2)c1 (stereo not drawn) [Example 141, N-(2-hydroxy-1-phenylethyl)-1-(5-methyl-2-((tetrahydro-2H-pyran-3-yl)amino)-pyrimidin-4-yl)-1H-pyrrole-3-carboxamide], the IC50 [1, 4] is reported as greater than 2500 nM, the IC50 [2, 5] is reported as greater than 2500 nM and the IC50 [3, 4] is reported as greater than 2500 nM.

Work on COc1cc(F)ccc1Nc1ncc(C)c(-n2ccc(C(=O)NC(CO)c3cccc(Cl)c3)c2)n1 (stereo not drawn) [Example 142, N-(1-(3-chloro-phenyl)-2-hydroxy-ethyl)-1-(2-((4-fluoro-2-methoxy-phenyl)amino)-5-methyl-pyrimidin-4-yl)-1H-pyrrole-3-carboxamide] yielded an IC50 [1, 4] of 500 to 2500 nM, an IC50 [2, 5] of 500 to 2500 nM and an IC50 [3, 4] of 250 to 500 nM.

COc1c(F)cccc1Nc1ncc(C)c(-n2ccc(C(=O)NC(CO)c3cccc(Cl)c3)c2)n1 (stereo not drawn) [Example 143, N-(1-(3-chloro-phenyl)-2-hydroxy-ethyl)-1-(2-((3-fluoro-2-methoxy-phenyl)amino)-5-methyl-pyrimidin-4-yl)-1H-pyrrole-3-carboxamide] was tested, and the IC50 [1, 4] was 500 to 2500 nM, the IC50 [2, 5] was 250 to 500 nM and the IC50 [3, 4] was 250 to 500 nM.

For CC[C@@H](CO)Nc1ncc(C)c(-n2ccc(C(=O)NC(CO)c3cccc(Cl)c3)c2)n1 (stereo partly drawn) [Example 146, N-(1-(3-chloro-phenyl)-2-hydroxy-ethyl)-1-(2-(((S)-1-hydroxy-butan-2-yl)amino)-5-methyl-pyrimidin-4-yl)-1H-pyrrole-3-carboxamide], the IC50 [1, 4] was 500 to 2500 nM, the IC50 [2, 5] was 500 to 2500 nM and the IC50 [3, 4] was 100 to 250 nM.

Cc1cnc(NC(CO)CO)nc1-n1ccc(C(=O)NC(CO)c2ccccc2)c1 (stereo not drawn) [Example 147, 1-(2-((1,3-dihydroxy-propan-2-yl)amino)-5-methyl-pyrimidin-4-yl)-N-(2-hydroxy-1-phenylethyl)-1H-pyrrole-3-carboxamide] showed an IC50 [1, 4] greater than 2500 nM, an IC50 [2, 5] greater than 2500 nM and an IC50 [3, 4] greater than 2500 nM.

Work on COc1ccc(Nc2ncc(C)c(-n3ccc(C(=O)NC(CO)c4ccccc4)c3)n2)cc1OCCN1CCN(C)CC1 (stereo not drawn) [Example 148, N-(2-hydroxy-1-phenylethyl)-1-(2-((4-methoxy-3-(2-(4-methyl-piperazin-1-yl)ethoxy)-phenyl)amino)-5-methyl-pyrimidin-4-yl)-1H-pyrrole-3-carboxamide] yielded an IC50 [1, 4] of 500 to 2500 nM, an IC50 [2, 5] of 500 to 2500 nM and an IC50 [3, 4] of 500 to 2500 nM.

Compound Cc1cnc(Nc2ccc(F)cc2Cl)nc1-n1ccc(C(=O)NC(COC(=O)C(N)CC(C)C)c2ccccc2)c1 (stereo not drawn) [Example 150, 2-(1-(2-((2-chloro-4-fluorophenyl)-amino)-5-methyl-pyrimidin-4-yl)-1H-pyrrole-3-carboxamido)-2-phenylethyl 2-amino-4-methyl-pentanoate] has an IC50 [1, 4] greater than 2500 nM, an IC50 [2, 5] greater than 2500 nM and an IC50 [3, 4] of 500 to 2500 nM.

Cc1cnc(NC2CCOC2)nc1-n1ccc(C(=O)N[C@H](CO)c2cccc(Cl)c2)c1 (stereo partly drawn) [Example 151, N-((S)-1-(3-chlorophenyl)-2-hydroxy-ethyl)-1-(5-methyl-2-((tetrahydro-furan-3-yl)amino)pyrimidin-4-yl)-1H-pyrrole-3-carboxamide] was tested, and the IC50 [1, 4] was no more than 100 nM, the IC50 [2, 5] was 500 to 2500 nM and the IC50 [3, 4] was 100 to 250 nM.

For Cc1cnc(NC2CCCOC2)nc1-n1ccc(C(=O)N[C@H](CO)c2cccc(Cl)c2)c1 (stereo partly drawn) [Example 152, N-((S)-1-(3-chlorophenyl)-2-hydroxy-ethyl)-1-(5-methyl-2-((tetrahydro-2H-pyran-3-yl)amino)pyrimidin-4-yl)-1H-pyrrole-3-carboxamide], the IC50 ([1]; HT29 cells) was 100 to 250 nM, the IC50 [2, 5] was 500 to 2500 nM and the IC50 ([3]; HT29 cells) was 100 to 250 nM.

For COc1cc(Nc2ncc(C)c(-n3ccc(C(=O)NC(CO)c4ccccc4)c3)n2)ccc1F (stereo not drawn) [Example 154, 1-(2-((4-fluoro-3-methoxy-phenyl)amino)-5-methyl-pyrimidin-4-yl)-N-(2-hydroxy-1-phenylethyl)-1H-pyrrole-3-carboxamide], the IC50 [1, 4] was 500 to 2500 nM, the IC50 [2, 5] was 100 to 250 nM and the IC50 [3, 4] was 250 to 500 nM.

Cc1cnc(Nc2ccc(F)cc2)nc1-n1cnc(C(=O)NC(CO)c2cccc(Cl)c2)c1 (stereo not drawn) [Example 155, N-(1-(3-chlorophenyl)-2-hydroxy-ethyl)-1-(2-((4-fluoro-phenyl)amino)-5-methyl-pyrimidin-4-yl)-1H-imidazole-4-carboxamide] showed an IC50 [1, 4] of 250 to 500 nM, an IC50 [2, 5] of 500 to 2500 nM and an IC50 [3, 4] of 100 to 250 nM.

Cc1cnc(NC2CCCOC2)nc1-n1ccc(C(=O)N[C@H](CO)c2cccc(Cl)c2)c1 (stereo partly drawn) [Example 156, N-((S)-1-(3-chloro-phenyl)-2-hydroxy-ethyl)-1-(5-methyl-2-((tetrahydro-2H-pyran-3-yl)amino)-pyrimidin-4-yl)-1H-pyrrole-3-carboxamide] was tested, and the IC50 ([1]; HT29 cells) was 250 to 500 nM, the IC50 ([2]; HCT116 cells) was 500 to 2500 nM and the IC50 ([3]; HT29 cells) was 250 to 500 nM.

Cc1cnc(NC2CCOC2)nc1-n1ccc(C(=O)N[C@H](CO)c2ccc(F)c(Cl)c2)c1 (stereo partly drawn) [Example 157, N-((S)-1-(3-chloro-4-fluorophenyl)-2-hydroxy-ethyl)-1-(5-methyl-2-((tetrahydro-furan-3-yl)amino)pyrimidin-4-yl)-1H-pyrrole-3-carboxamide] was tested, and the IC50 [1, 4] was 250 to 500 nM, the IC50 [2, 5] was 500 to 2500 nM and the IC50 [3, 4] was 250 to 500 nM.

CC(=O)NCC(NC(=O)c1ccn(-c2nc(Nc3ccc4c(c3)OC(F)(F)O4)ncc2C)c1)c1cccc(Cl)c1 (stereo not drawn) [Example 158, N-(2-acetamido-1-(3-chloro-phenyl)-ethyl)-1-(2-((2,2-difluoro-benzo[d][1,3]dioxol-5-yl)-amino)-5-methyl-pyrimidin-4-yl)-1H-pyrrole-3-carboxamide] was tested, and the IC50 [1, 4] was 500 to 2500 nM, the IC50 [2, 5] was 500 to 2500 nM and the IC50 [3, 4] was greater than 2500 nM.

Cc1cnc(Nc2cccc3c2OC(F)(F)O3)nc1-n1ccc(C(=O)NC(CO)c2cccc(Cl)c2)c1 (stereo not drawn) [Example 160, N-(1-(3-chloro-phenyl)-2-hydroxy-ethyl)-1-(2-((2,2-difluoro-benzo[d][1,3]dioxol-4-yl)amino)-5-methyl-pyrimidin-4-yl)-1H-pyrrole-3-carboxamide] gave an IC50 [1, 4] greater than 2500 nM, an IC50 [2, 5] greater than 2500 nM and an IC50 [3, 4] of 500 to 2500 nM.

Compound Cc1cnc(N[C@H]2CCOC2)nc1-n1ccc(C(=O)N[C@H](CO)c2cccc(Cl)c2)c1 [Example 161, N-((S)-1-(3-chlorophenyl)-2-hydroxy-ethyl)-1-(5-methyl-2-(((S)-tetra-hydrofuran-3-yl)amino)pyrimidin-4-yl)-1H-pyrrole-3-carboxamide] has an IC50 [1, 4] of no more than 100 nM, an IC50 [2, 5] of 250 to 500 nM and an IC50 [3, 4] of no more than 100 nM.
